Measured values taken from publication PMC8899516, “Structure-Activity Relationship Studies of 4-((4-(2-fluorophenyl)piperazin-1-yl)methyl)-6-imino-N-(naphthalen-2-yl)-1,3,5-triazin-2-amine (FPMINT) Analogues as Inhibitors of Human Equilibrative Nucleoside Transporters” (Frontiers in Pharmacology, 2022).

How the values were obtained:
ENT1 = molecular target: T1, ENT1 (Homo sapiens, UniProt Q99808); experiment: [3H]uridine uptake in PK15NTD/ENT1 cells; assay type: cell-based; details: for IC50: [3H]uridine 1 μM, 1 min, PK15NTD/ENT1 cells, read-out: IC50 against ENT1
T1 construct: expressed in transfected cells
T1 sequence (Q99808 1-456): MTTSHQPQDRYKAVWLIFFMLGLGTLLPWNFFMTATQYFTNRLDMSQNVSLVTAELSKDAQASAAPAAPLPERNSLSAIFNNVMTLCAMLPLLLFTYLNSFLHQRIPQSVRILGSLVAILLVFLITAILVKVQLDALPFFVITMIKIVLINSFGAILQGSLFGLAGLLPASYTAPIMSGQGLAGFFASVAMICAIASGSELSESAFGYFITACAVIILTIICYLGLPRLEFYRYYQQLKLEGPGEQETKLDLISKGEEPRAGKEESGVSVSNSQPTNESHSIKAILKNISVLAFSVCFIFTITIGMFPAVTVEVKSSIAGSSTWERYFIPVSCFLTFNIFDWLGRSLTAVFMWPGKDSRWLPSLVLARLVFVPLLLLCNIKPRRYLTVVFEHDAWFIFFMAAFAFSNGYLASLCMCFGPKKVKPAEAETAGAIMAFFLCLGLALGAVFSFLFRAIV
Experimental: (§1) Nucleoside transporter-deficient porcine kidney fibroblast cells (PK15NTD) stably transfected with cloned human ENT1 or ENT2 ([Ward et al., 2000]) were used as the in vitro models. The cells were cultured in Dulbecco’s Modified Eagle’s Medium (DMEM) supplemented with 10% (v/v) foetal bovine serum, 0.5 mg/ml geneticin, 100 units/ml penicillin, 100 μg/ml streptomycin and 0.25 μg/ml of amphotericin B at 37°C in 5% CO2/95% air.
(§2) Confluent monolayers of PK15NTD/ENT1 and PK15NTD/ENT2 cells in 24-well plates were washed thrice with HEPES-buffered Ringer’s solution containing (mM): 135 NaCl, 10 glucose, 5 KCl, 5 HEPES, 3.33 NaH2PO4, 1.0 CaCl2, 1.0 MgCl2, 0.83 Na2HPO4; pH 7.4. The cells were incubated with different concentrations of FPMINT analogues (from 10 nM to 100 μM) containing [^3H]uridine (2 μCi/ml, 1 μM) for 1 min. Passive uridine uptake was determined by incubating the cells in HEPES-buffered Ringer’s solution containing [^3H]uridine in the presence of 0.5 mM NBMPR. The cells were rapidly washed five times with ice-cold phosphate-buffered saline (PBS). After air-drying, the cells were solubilised by overnight incubation in 500 μl of 5% Triton-X100. Next, 300 μl of the cell lysates were mixed with 2 ml of scintillation liquid. The radioactivity of each sample was quantified by a scintillation counter. The protein content in each well was determined spectrophotometrically using a commercial bicinchoninic acid assay (Pierce Biochemicals, Rockford, IL). Uptake values were expressed as picomoles of [^3H]uridine per milligram of cellular protein per minute.
(§3) All data were analysed by GraphPad Prism software (San Diego, CA, United States). Data are expressed as mean ± standard error (SE) of three experiments performed in triplicate. The IC50 values were determined from the dose-response curves fitted with a logistic function. For the kinetic study of [^3H]uridine uptake, apparent K m and V max values were determined from the Michaelis-Menten equation, and K i was determined from the X-intercept of linear regression. Analysis of variance and Student’s t-test were performed for multiple and paired variables, respectively. p values of <0.05 were considered to be statistically significant.

ENT2 = molecular target: T2, ENT2 (Homo sapiens, UniProt Q14542); experiment: [3H]uridine uptake in PK15NTD/ENT2 cells; assay type: cell-based; details: for effect on ENT2: [3H]uridine uptake, 10 nM–100 μM analogue; for IC50: [3H]uridine 1 μM, 1 min, PK15NTD/ENT2 cells, read-out: IC50 against ENT2; for selectivity to ENT2 over ENT1: more selective to ENT2 than to ENT1, from IC50 values
T2 construct: expressed in transfected cells
T2 sequence (Q14542 1-456): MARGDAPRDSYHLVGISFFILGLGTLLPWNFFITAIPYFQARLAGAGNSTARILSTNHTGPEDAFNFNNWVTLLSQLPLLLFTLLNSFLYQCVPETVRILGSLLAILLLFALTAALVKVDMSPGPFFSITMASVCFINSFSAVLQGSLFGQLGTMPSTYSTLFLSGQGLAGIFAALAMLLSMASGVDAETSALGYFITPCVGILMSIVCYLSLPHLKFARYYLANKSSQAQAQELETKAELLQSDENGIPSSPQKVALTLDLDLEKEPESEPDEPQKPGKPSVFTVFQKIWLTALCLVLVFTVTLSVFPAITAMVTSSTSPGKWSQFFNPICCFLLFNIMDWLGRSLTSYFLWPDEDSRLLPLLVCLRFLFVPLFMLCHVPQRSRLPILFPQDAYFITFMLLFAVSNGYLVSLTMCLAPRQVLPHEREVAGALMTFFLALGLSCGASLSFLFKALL
Experimental: as §1
as §2, with “The” for “Confluent monolayers of PK15NTD/ENT1 and PK15NTD/ENT2 cells in 24-well plates were washed thrice with HEPES-buffered Ringer’s solution containing (mM): 135 NaCl, 10 glucose, 5 KCl, 5 HEPES, 3.33 NaH2PO4, 1.0 CaCl2, 1.0 MgCl2, 0.83 Na2HPO4; pH 7.4. The”
as §3

ENT1 and ENT2 [1] = details: ref Ward et al., 2000, cited from earlier work; for fold more potent in inhibiting ENT1 than in inhibiting ENT2: Playa et al., 2014
ENT3 = test system: ENT3; set-up: method as in Baldwin et al., 2005; Barnes et al., 2006; details: ref Baldwin et al., 2005; Barnes et al., 2006; cited from earlier work
ENT4 = test system: ENT4; set-up: method as in Baldwin et al., 2005; Barnes et al., 2006; details: ref Baldwin et al., 2005; Barnes et al., 2006; cited from earlier work
ENT1 and ENT2 [2] = test system: ENT1 and ENT2; set-up: method as in Ward et al., 2000; details: substrate affinity; ref Ward et al., 2000; cited from earlier work

Nc1nc(CN2CCN(c3ccccc3F)CC2)nc(Nc2ccccc2)n1 [Compound 1a]
effect on ENT1 (ENT1; [3H]uridine uptake, 10 nM–100 μM analogue): negligible effects | effect on ENT2 (ENT2): negligible effects

Nc1nc(CN2CCN(c3ccccc3F)CC2)nc(Nc2cccc(Cl)c2)n1 [Compound 1b]
IC50 (ENT1): 1.82 µM | effect on ENT2 (ENT2): no effect

CCc1ccc(Nc2nc(N)nc(CN3CCN(c4ccccc4F)CC3)n2)cc1 [Compound 1c]
IC50 (ENT1): 171 µM | IC50 (ENT2): 36.8 µM | selectivity to ENT2 over ENT1 (ENT2): 4.647 fold

COc1ccc(Nc2nc(N)nc(CN3CCN(c4ccccc4F)CC3)n2)cc1 [Compound 1d]
IC50 (ENT1): 0.59 µM | IC50 (ENT2): 77.1 µM

Nc1nc(CN2CCN(c3ccccc3)CC2)nc(Nc2cccc3ccccc23)n1 [Compound 2a]
IC50 (ENT1): 105 µM | effect on ENT2 (ENT2): did not inhibit

Nc1nc(CN2CCN(c3cccc(Cl)c3)CC2)nc(Nc2cccc3ccccc23)n1 [Compound 2b]
IC50 (ENT1): 12.7 µM | IC50 (ENT2): 2.95 µM | selectivity to ENT2 over ENT1 (ENT2): 4.29 fold

Nc1nc(CN2CCN(c3ccc(F)cc3)CC2)nc(Nc2cccc(Cl)c2)n1 [Compound 3b]
IC50 (ENT1): 1.65 µM | effect on ENT2 (ENT2): did not inhibit

O=[N+]([O-])c1ccc(CSc2ncnc3c2ncn3[C@@H]2O[C@H](CO)[C@@H](O)[C@H]2O)cc1 [NBMPR, S-(4-nitrobenzyl)-6-thioinosine]
fold more potent in inhibiting ENT1 than in inhibiting ENT2 (ENT1 and ENT2 [1]): 7,000 fold | IC50 of ENT2 fold higher than that of ENT1 (ENT1 and ENT2 [1]): 7,000 fold | sensitivity of ENT3 to inhibitor (ENT3): inert | sensitivity of ENT4 to inhibitor (ENT4): inert

Nc1ncnc2c1ncn2[C@@H]1O[C@H](CO)[C@@H](O)[C@H]1O [adenosine]
affinity of ENT1 fold higher than that of ENT2 (ENT1 and ENT2 [2]): 2.8 fold

Nc1ccn([C@@H]2O[C@H](CO)[C@@H](O)[C@H]2O)c(=O)n1 [cytidine]
affinity of ENT1 fold higher than that of ENT2 (ENT1 and ENT2 [2]): 7.7 fold

COc1cc(C(=O)OCCCN2CCCN(CCCOC(=O)c3cc(OC)c(OC)c(OC)c3)CC2)cc(OC)c1OC [dilazep]
fold more potent in inhibiting ENT1 than in inhibiting ENT2 (ENT1 and ENT2 [1]): 502 fold

OCCN(CCO)c1nc(N2CCCCC2)c2nc(N(CCO)CCO)nc(N3CCCCC3)c2n1 [dipyridamole]
fold more potent in inhibiting ENT1 than in inhibiting ENT2 (ENT1 and ENT2 [1]): 71 fold | IC50 of ENT2 fold higher than that of ENT1 (ENT1 and ENT2 [1]): 71 fold | sensitivity of ENT3 to inhibitor (ENT3): inert | sensitivity of ENT4 to inhibitor (ENT4): inert

Nc1nc2c(ncn2[C@@H]2O[C@H](CO)[C@@H](O)[C@H]2O)c(=O)[nH]1 [guanosine]
affinity of ENT1 fold higher than that of ENT2 (ENT1 and ENT2 [2]): 19.3 fold

Cc1cn([C@H]2C[C@H](O)[C@@H](CO)O2)c(=O)[nH]c1=O [thymidine]
affinity of ENT1 fold higher than that of ENT2 (ENT1 and ENT2 [2]): 2.6 fold
